Results from US4032659A (priority 1975, dated 1977).
Like-named read-outs stand apart in the source and are kept apart here.

Legend:
Herpes virus [1] = type: in vivo, mouse; settings: oral
[2] = system: Influenza B Massachusetts virus; assay: Chemoprophylaxis of Influenza B Massachusetts virus infection in mice; type: in vivo, mouse; settings: oral
Protocol: The activity of four compounds on Influenza B Mass. was tested in mice.
A portion of a commercially available sample of amantadine was recrystallized from isopropanol. The activity of the material against Influenza B Mass. was tested for the sample as obtained, the recrystallized portion, and the mother liquor obtained from recrystallizing the portion.

virus infections = assay: Antiviral screening program, several viruses; settings: mouse, in vivo
[3] = system: Influenza Ann Arbor virus; assay: Chemoprophylaxis of Influenza Ann Arbor (A1) virus infection in mice; type: in vivo, mouse
Herpes virus [4] = assay: Herpes virus in eggs (chick embryo survival); type: in vivo, chicken eggs; settings: all doses
[5] = subcutaneous, total dose .003 μg

NNC(=S)NC12CC3CC(CC(C3)C1)C2
No. animals surviving when 18/20 of controls are dead (Herpes virus [1]; total dose 4pg): 1
Survivors (Herpes virus [1]; total dose 4pg): 1
No. animals surviving when 18/20 of controls are dead (Herpes virus [1]; total dose 40pg): 1
Survivors (Herpes virus [1]; total dose 40pg): 1
No. animals surviving when 18/20 of controls are dead (Herpes virus [1]; total dose 400pg): 3
Survivors (Herpes virus [1]; total dose 400pg): 3
No. animals surviving when 18/20 of controls are dead (Herpes virus [1]; total dose 4ng): 2
Survivors (Herpes virus [1]; total dose 4ng): 2
No. animals surviving when 18/20 of controls are dead (Herpes virus [1]; total dose 40ng): 2
Survivors (Herpes virus [1]; total dose 40ng): 2
No. animals surviving when 18/20 of controls are dead (Herpes virus [1]; total dose 400ng): 3
Survivors (Herpes virus [1]; total dose 400ng): 3

NC12CC3CC(CC(C3)C1)C2 [Commercial amantadine, amantadine, reference compound]
No. animals surviving after 11 days ([2]; total dose 60 ng): 3
Survivors ([2]; total dose 60 ng): 0
No. animals surviving after 11 days ([2]; total dose 600 ng): 3
Survivors ([2]; total dose 600 ng): 3
No. animals surviving after 11 days ([2]; total dose 6 μg): 7
Survivors ([2]; total dose 6 μg): 5
No. animals surviving after 11 days ([2]; total dose 60 μg): 3
Survivors ([2]; total dose 60 μg): 2
No. animals surviving after 11 days ([2]; total dose 600 μg): 5
Survivors ([2]; total dose 600 μg): 5
No. animals surviving after 11 days ([2]; total dose 6 mg): 4
Survivors ([2]; total dose 6 mg): 2

NC(=S)NN=C1CCCCC1 [Cyclohexanone, thiosemicarbazone]
No. animals surviving after 11 days ([2]; total dose 5pg): 7
No. animals surviving when 16/20 of controls are dead ([2]; total dose 5pg): 5
Survivors ([2]; total dose 5pg): 5
No. animals surviving after 11 days ([2]; total dose 50pg): 4
No. animals surviving when 16/20 of controls are dead ([2]; total dose 50pg): 3
Survivors ([2]; total dose 50pg): 2
No. animals surviving after 11 days ([2]; total dose 500pg): 2
No. animals surviving when 16/20 of controls are dead ([2]; total dose 500pg): 2
Survivors ([2]; total dose 500pg): 2
No. animals surviving after 11 days ([2]; total dose 5ng): 3
No. animals surviving when 16/20 of controls are dead ([2]; total dose 5ng): 2
Survivors ([2]; total dose 5ng): 2
No. animals surviving after 11 days ([2]; total dose 50ng): 7
No. animals surviving when 16/20 of controls are dead ([2]; total dose 50ng): 7
Survivors ([2]; total dose 50ng): 5
No. animals surviving after 11 days ([2]; total dose 500ng): 2
No. animals surviving when 16/20 of controls are dead ([2]; total dose 500ng): 1
Survivors ([2]; total dose 500ng): 1

NNc1nncc2ccccc12 [Hydralazine, hydralazine, reference compound]
activity (in words) (virus infections): effective against Herpes virus

NN.O=S(=O)(O)O [Hydrazine Sulfate, hydrazine sulfate]
Survivors (Herpes virus [1]; total dose 5 μg): 2
Survivors (Herpes virus [1]; total dose .0005 μg): 3
Survivors (Herpes virus [1]; total dose .005 μg): 4
Survivors (Herpes virus [1]; total dose .05 μg): 0
Survivors (Herpes virus [1]; total dose .5 μg): 1

NC12CC3CC(CC(C3)C1)C2 [Recrystallized amantadine, amantadine, reference compound]
No. animals surviving after 11 days ([2]; total dose 60 ng): 4
Survivors ([2]; total dose 60 ng): 2
No. animals surviving after 11 days ([2]; total dose 600 ng): 3
Survivors ([2]; total dose 600 ng): 3
No. animals surviving after 11 days ([2]; total dose 6 μg): 5
Survivors ([2]; total dose 6 μg): 5
No. animals surviving after 11 days ([2]; total dose 60 μg): 5
Survivors ([2]; total dose 60 μg): 2
No. animals surviving after 11 days ([2]; total dose 600 μg): 3
Survivors ([2]; total dose 600 μg): 2
No. animals surviving after 11 days ([2]; total dose 6 mg): 6
Survivors ([2]; total dose 6 mg): 4

NC(N)=NN=Cc1c(Cl)cccc1Cl [[(2,6-dichlorobenzylidine)amino]guanidine acetate]
No. animals surviving after 6 days ([3]; oral, total dose 30 pg): 4
Survivors ([3]; oral, total dose 30 pg): 0
No. animals surviving after 6 days ([3]; oral, total dose 300 pg): 2
Survivors ([3]; oral, total dose 300 pg): 1
No. animals surviving after 6 days ([3]; oral, total dose 3 ng): 4
Survivors ([3]; oral, total dose 3 ng): 0
No. animals surviving after 6 days ([3]; oral, total dose 30 ng): 1
Survivors ([3]; oral, total dose 30 ng): 0
No. animals surviving after 6 days ([3]; oral, total dose 300 ng): 1
Survivors ([3]; oral, total dose 300 ng): 0
No. animals surviving after 6 days ([3]; oral, total dose 3 μg): 2
Survivors ([3]; oral, total dose 3 μg): 0
No. animals surviving after 6 days ([3]; oral, total dose 30 μg): 3
Survivors ([3]; oral, total dose 30 μg): 0
No. animals surviving after 6 days ([3]; oral, total dose 300 μg): 1
Survivors ([3]; oral, total dose 300 μg): 0
Toxicity ([3]; oral, total dose 3 mg): Toxic

CCOC(=O)CC(C)=NNC(N)=S [acetoacetic acid, ethyl ester, thiosemicarbazone]
No. animals surviving after 5 days ([3]; oral, total dose 30 pg): 8
Survivors ([3]; oral, total dose 30 pg): 0
No. animals surviving after 5 days ([3]; oral, total dose 300 pg): 4
Survivors ([3]; oral, total dose 300 pg): 0
No. animals surviving after 5 days ([3]; oral, total dose 3 ng): 5
Survivors ([3]; oral, total dose 3 ng): 0
No. animals surviving after 5 days ([3]; oral, total dose 30 ng): 5
Survivors ([3]; oral, total dose 30 ng): 0
No. animals surviving after 5 days ([3]; oral, total dose 300 ng): 4
Survivors ([3]; oral, total dose 300 ng): 0
No. animals surviving after 5 days ([3]; oral, total dose 3 μg): 6
Survivors ([3]; oral, total dose 3 μg): 0
No. animals surviving after 5 days ([3]; oral, total dose 30 μg): 8
Survivors ([3]; oral, total dose 30 μg): 0
No. animals surviving after 5 days ([3]; oral, total dose 300 μg): 7
Survivors ([3]; oral, total dose 300 μg): 0
No. animals surviving after 5 days ([3]; oral, total dose 3 mg): 5
Survivors ([3]; oral, total dose 3 mg): 0

CC(C)=NNC(N)=S [acetone, thiosemicarbazone]
No. animals surviving after 6 days ([3]; oral, total dose 30 pg): 3
Survivors ([3]; oral, total dose 30 pg): 1
No. animals surviving after 6 days ([3]; oral, total dose 300 pg): 2
Survivors ([3]; oral, total dose 300 pg): 0
No. animals surviving after 6 days ([3]; oral, total dose 3 ng): 2
Survivors ([3]; oral, total dose 3 ng): 0
No. animals surviving after 6 days ([3]; oral, total dose 30 ng): 2
Survivors ([3]; oral, total dose 30 ng): 0
No. animals surviving after 6 days ([3]; oral, total dose 300 ng): 3
Survivors ([3]; oral, total dose 300 ng): 0
No. animals surviving after 6 days ([3]; oral, total dose 3 μg): 5
Survivors ([3]; oral, total dose 3 μg): 0
No. animals surviving after 6 days ([3]; oral, total dose 30 μg): 2
Survivors ([3]; oral, total dose 30 μg): 0
No. animals surviving after 6 days ([3]; oral, total dose 300 μg): 3
Survivors ([3]; oral, total dose 300 μg): 0

N=C(N)NN [aminoguanidine, bicarbonate]
Survivors ([2]; total dose 40pg): 0
Survivors ([2]; total dose 4ng): 0
Survivors ([2]; total dose 40ng): 1
Survivors ([2]; total dose 400ng): 1
Survivors ([2]; total dose 4μg): 1

N=C(N)NN [aminoguanidine]
No. animals surviving after 7 days ([3]; oral, total dose 300 pg): 6
Survivors ([3]; oral, total dose 300 pg): 1
Survivors ([3]; oral, total dose 3 ng): 1
Survivors ([3]; oral, total dose 30 ng): 2
Survivors ([3]; oral, total dose 300 ng): 4
No. animals surviving after 7 days ([3]; oral, total dose 3 μg): 8
Survivors ([3]; oral, total dose 3 μg): 3
No. animals surviving after 7 days ([3]; oral, total dose 30 μg): 8
Survivors ([3]; oral, total dose 30 μg): 5
survival ([3]; subcutaneous, one dose level): 50%
No. animals surviving after 7 days ([3]; subcutaneous, total dose 3 μg): 6
Survivors ([3]; subcutaneous, total dose 3 μg): 2
Survivors ([3]; subcutaneous, total dose 30 μg): 2
No. animals surviving after 7 days ([3]; subcutaneous, total dose .0003 μg): 8
No. animals surviving after 7 days [3, 5]: 8
Survivors [3, 5]: 0
Survivors ([3]; subcutaneous, total dose .03 μg): 1
Survivors ([3]; subcutaneous, total dose .3 μg): 1

Cc1ccccc1NC(=S)NN=C1CCCC1 [cyclopentanone, 3-thio-4-o-tolylsemicarbazone]
No. animals surviving after 5 days ([3]; oral, total dose 30 pg): 6
Survivors ([3]; oral, total dose 30 pg): 0
No. animals surviving after 5 days ([3]; oral, total dose 300 pg): 9
Survivors ([3]; oral, total dose 300 pg): 0
No. animals surviving after 5 days ([3]; oral, total dose 3 ng): 9
Survivors ([3]; oral, total dose 3 ng): 0
No. animals surviving after 5 days ([3]; oral, total dose 30 ng): 9
No. animals surviving after 5 days ([3]; oral, total dose 300 ng): 6
Survivors ([3]; oral, total dose 300 ng): 0
No. animals surviving after 5 days ([3]; oral, total dose 3 μg): 6
Survivors ([3]; oral, total dose 3 μg): 0
Survivors ([3]; oral, total dose 30 μg): 0
No. animals surviving after 5 days ([3]; oral, total dose 300 μg): 9
Survivors ([3]; oral, total dose 300 μg): 0
No. animals surviving after 5 days ([3]; oral, total dose 3 mg): 8
Survivors ([3]; oral, total dose 3 mg): 0

NN [hydrazine]
No. animals surviving after 7 days (Herpes virus [1]; total dose 5 μg): 7
No. animals surviving after 7 days (Herpes virus [1]; total dose .0005 μg): 5
No. animals surviving when 19/20 controls are dead (Herpes virus [1]; total dose .0005 μg): 5
No. animals surviving after 7 days (Herpes virus [1]; total dose .005 μg): 6
No. animals surviving when 19/20 controls are dead (Herpes virus [1]; total dose .005 μg): 3
No. animals surviving after 7 days (Herpes virus [1]; total dose .05 μg): 5
No. animals surviving after 7 days (Herpes virus [1]; total dose .5 μg): 6
No. animals surviving when 19/20 controls are dead (Herpes virus [1]; total dose .5 μg): 1
No. Living Longer Than Controls, total (Herpes virus [4]): 3

N-hydroxyphthalamide
activity (in words) (virus infections): active in the practice of this invention
